In this test the test system is HCE cells. As to the kind of experiment: Cell sprouting assay, HCE cells embedded in MATRIGEL
The conditions noted are these: 50 μM, 72 hours, compared to vehicle only control. Format: cell-based, Human. Here is the method:
Cell Sprouting Assay. A cell sprouting assay was performed using HCE cells in a solubilized basement membrane sold under the tradename MATRIGEL® (reduced and diluted in MEM 1:1; Corning Life Sciences, Tewksbury, Mass.). HCE cells were embedded in the solubilized basement membrane at 5×10^5 cells/10 μL spot. The cell spotted plates were then exposed to reduced serum media (0.5% FBS) (untreated negative control), Hst5 (50 μM), or 10% FBS (positive control). HCE cell migration was then followed with time lapse microscopy and imaged at 4× (Image Express Micro; Molecular Devices, CA). Cell covered area at a given time point was measured using Image J.
A cell sprouting assay using HCE cells embedded as a spot in growth factor reduced solubilized basement membrane sold under the tradename MATRIGEL® (Corning Life Sciences, Tewksbury, Mass.) was used to determine if HST5 could promote epithelial cell migration. […] A standardized scratch assay using the HCLE cell line tested the effects of Hst5 on cell migration. HCLE cells were grown to confluence and mechanically scratched using a pipette tip. Cells were treated with different concentrations (20, 50, 80 and 100 μM) of Hst5 or left untreated as a control. Time-lapse microscopy was performed and wound areas were analyzed at different time points. […] The most significant increase in scratch closure rates was noticed at 50 μM. […]

This is an account of results in patent US20230027620A1, “PENTAPEPTIDE AND METHODS OF USE THEREOF” (THE BOARD OF TRUSTEES OF THE UNIVERSITY OF ILLINOIS, priority 2019, published 2023).

As to DSHAKRHHGYKRKFHEKHHSHRGY [Hst5], the “cell migration (cell sprouting)” value is “statistically significant increase in cell migration”.
